Earlier results as cited in patent US20090317456A1, “USE OF ONCOLYTIC VIRUSES AND ANTIANGIOGENIC AGENTS IN THE TREATMENT OF CANCER” (priority 2006, published 2009).

Assays:
[1] = tested on: VEGFR tyrosine kinases, including VEGFR-3; settings: all known VEGFR tyrosine kinases
[2] = tested on: PDGFR
[3] = tested on: metastatic colorectal cancer; settings: bevacizumab added to FOLFOX or FOLFIRI; prolonged from 12 months without

Clc1ccc(Nc2nnc(Cc3ccncc3)c3ccccc23)cc1 [PTK 787/ZK 222584]
inhibition of VEGFR tyrosine kinases [1]: lower nanomolar range | inhibition of PDGFR [2]: nanomolar range

bevacizumab: humanized anti-VEGF monoclonal antibody (Avastin, Genentech)
median survival [3]: 20 months
